This note sets out measurements from ChEMBL document CHEMBL4665657, “2-Phenyl-8-(1-phenylallyl)-chromenone compounds have a pan-PPAR modulator pharmacophore” (Bioorg Med Chem, 2019).

Calls of active or inactive are those of the source. The rule behind the calls is not given here.

Data set [1] deals with BMMSC. As to the kind of experiment: Induction of adipogenesis in human BMMSC cells assessed as increase in ANGPTL4 mRNA at 1 uM incubated for 3 days by qRT-PCR analysis. In kind it is functional, cell-based. Particulars: time 3.0 day.
The test system of data set [2] is BMMSC. As to the kind of experiment: Induction of adipogenesis in human BMMSC cells assessed as increase in ACACB mRNA at 1 uM incubated for 3 days by qRT-PCR analysis. Type of data set: functional, cell-based. To be noted: time 3.0 day. (In general: In qPCR the cycle at which signal appears reflects the starting amount.)
Data set [3] concerns BMMSC. Put plainly: Induction of adipogenesis in human BMMSC cells assessed as increase in HMGCS2 mRNA at 1 uM incubated for 3 days by qRT-PCR analysis. Type of data set: functional, cell-based. To be noted: time 3.0 day.
Data set [4] deals with BMMSC. Put plainly: Induction of adipogenesis in human BMMSC cells assessed as increase in HMGCR mRNA at 1 uM incubated for 3 days by qRT-PCR analysis. In kind it is functional, cell-based. To be noted: time 3.0 day.
Data set [5] has as its system BMMSC. Put plainly: Induction of adipogenesis in human BMMSC cells assessed as increase in ACOX1 mRNA at 1 uM incubated for 3 days by qRT-PCR analysis. Type of data set: functional, cell-based. To be noted: time 3.0 day.
Data set [6] deals with BMMSC. As to the kind of experiment: Induction of adipogenesis in human BMMSC cells assessed as increase in ACACB mRNA at 10 uM incubated for 3 days by qRT-PCR analysis. In kind it is functional, cell-based. Particulars: time 3.0 day.
Data set [7] relates to BMMSC. Put plainly: Induction of adipogenesis in human BMMSC cells assessed as increase in HMGCS2 mRNA at 10 uM incubated for 3 days by qRT-PCR analysis. To be noted: time 3.0 day. Type of data set: functional, cell-based.
In data set [8] the test system is BMMSC. Put plainly: Induction of adipogenesis in human BMMSC cells assessed as increase in HMGCR mRNA at 10 uM incubated for 3 days by qRT-PCR analysis. In kind it is functional, cell-based. Particulars: time 3.0 day.
Data set [9] relates to BMMSC. As to the kind of experiment: Induction of adipogenesis in human BMMSC cells assessed as increase in ACOX1 mRNA at 10 uM incubated for 3 days by qRT-PCR analysis. To be noted: time 3.0 day. Type of data set: functional, cell-based.
The subject of data set [10] is BMMSC. Put plainly: Induction of adipogenesis in human BMMSC cells assessed as increase in adiponectin secretion at 10 uM incubated for 5 days by ELISA. Type of data set: functional, cell-based. To be noted: time 5.0 day. (In an ELISA, binding on a coated surface is turned into a signal by an enzyme label.)
Data set [11] has as its system BMMSC. Put plainly: Induction of adipogenesis in human BMMSC cells assessed as lipid droplet formation at 10 uM incubated for 5 days by oil red O staining based inverted microscopy analysis. In kind it is functional, cell-based. Particulars: time 5.0 day.
The test system of data set [12] is BMMSC. Put plainly: Induction of adipogenesis in human BMMSC cells assessed as increase in adiponectin secretion incubated for 5 days by ELISA. Type of data set: functional, cell-based. To be noted: time 5.0 day.
Data set [13] has as its target T1, Peroxisome proliferator-activated receptor gamma (Homo sapiens, UniProt P37231).
T1 sequence (P37231 whole entry): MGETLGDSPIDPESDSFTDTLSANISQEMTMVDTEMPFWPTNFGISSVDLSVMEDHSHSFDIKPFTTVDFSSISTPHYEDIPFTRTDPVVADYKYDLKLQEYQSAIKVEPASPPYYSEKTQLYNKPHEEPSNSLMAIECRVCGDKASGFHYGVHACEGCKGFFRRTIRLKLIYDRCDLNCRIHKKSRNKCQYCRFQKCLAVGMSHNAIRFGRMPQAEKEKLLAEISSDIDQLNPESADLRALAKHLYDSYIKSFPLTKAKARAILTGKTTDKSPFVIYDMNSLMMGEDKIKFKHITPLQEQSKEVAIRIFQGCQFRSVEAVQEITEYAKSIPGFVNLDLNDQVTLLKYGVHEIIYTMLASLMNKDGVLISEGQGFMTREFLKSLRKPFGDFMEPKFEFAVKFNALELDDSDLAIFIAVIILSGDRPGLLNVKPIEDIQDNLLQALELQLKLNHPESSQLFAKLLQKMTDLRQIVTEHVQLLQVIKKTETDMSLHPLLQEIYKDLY
Put plainly: Binding affinity to PPARgamma (unknown origin) by TR-FRET assay. (In TR-FRET formats the signal depends on donor and acceptor labels being close together.)

Data set [14] deals with T2, Peroxisome proliferator-activated receptor delta (Homo sapiens, UniProt Q03181).
T2 sequence (Q03181 whole entry): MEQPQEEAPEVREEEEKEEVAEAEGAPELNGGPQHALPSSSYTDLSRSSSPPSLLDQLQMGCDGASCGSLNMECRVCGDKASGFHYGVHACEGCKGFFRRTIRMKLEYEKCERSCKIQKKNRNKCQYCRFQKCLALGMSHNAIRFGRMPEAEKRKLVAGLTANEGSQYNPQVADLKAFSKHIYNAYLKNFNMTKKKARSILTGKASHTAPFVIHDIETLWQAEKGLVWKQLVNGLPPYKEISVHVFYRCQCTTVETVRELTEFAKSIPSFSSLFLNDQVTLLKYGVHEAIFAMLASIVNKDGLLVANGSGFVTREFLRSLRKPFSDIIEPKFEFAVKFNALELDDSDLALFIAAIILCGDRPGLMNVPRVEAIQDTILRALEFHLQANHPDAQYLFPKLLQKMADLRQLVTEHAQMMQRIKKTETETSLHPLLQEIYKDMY
As to the kind of experiment: Binding affinity to PPARdelta (unknown origin) by TR-FRET assay.

The target of data set [15] is T3, Peroxisome proliferator-activated receptor alpha (Homo sapiens, UniProt Q07869).
T3 sequence (Q07869 whole entry): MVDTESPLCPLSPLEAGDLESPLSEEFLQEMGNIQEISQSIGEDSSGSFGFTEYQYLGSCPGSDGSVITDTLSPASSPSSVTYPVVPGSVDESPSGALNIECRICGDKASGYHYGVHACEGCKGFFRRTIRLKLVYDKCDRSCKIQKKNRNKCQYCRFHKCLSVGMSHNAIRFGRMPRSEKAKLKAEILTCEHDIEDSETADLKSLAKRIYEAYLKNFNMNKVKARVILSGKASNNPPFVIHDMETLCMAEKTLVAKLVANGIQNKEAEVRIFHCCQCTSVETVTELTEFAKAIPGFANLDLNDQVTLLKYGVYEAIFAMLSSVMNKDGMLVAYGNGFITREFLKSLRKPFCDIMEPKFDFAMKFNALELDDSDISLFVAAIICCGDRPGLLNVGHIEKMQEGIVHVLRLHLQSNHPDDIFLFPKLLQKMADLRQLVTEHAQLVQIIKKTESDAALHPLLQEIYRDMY
As to the kind of experiment: Binding affinity to PPARalpha (unknown origin) by TR-FRET assay.

A further data set relates to PC-3. Put plainly: Cytotoxicity against human PC-3 cells assessed as reduction in cell viability incubated for 72 hrs by WST-8 assay. Type of data set: functional, cell-based. To be noted: PC-3, 72 h.
Data set [16] can be described thus: Cytotoxicity against human BM-MSC cells assessed as cell viability at 100 uM incubated for 72 hrs by WST-8 assay. Type of data set: cell-based, BMMSC. To be noted: read-out: Activity.
The subject of a further data set is A549. Put plainly: Cytotoxicity against human A549 cells assessed as reduction in cell viability incubated for 72 hrs by WST-8 assay. To be noted: A549, 72 h. Type of data set: functional, cell-based.

As for `CCc1ccc(CCOc2ccc(CC3SC(=O)NC3=O)cc2)nc1` (configuration not stated), the outcome in the data set with BMMSC [1], in the data set on BMMSC [2] and in the data set with BMMSC [4] was Active. The outcome with BMMSC [3] and with BMMSC [5] was inactive.
For the compound `Cc1cccc(Nc2cc(Cl)nc(SCC(=O)O)n2)c1C`, the outcome with BMMSC [6], in the data set on BMMSC [7], in the data set on BMMSC [8] and in the data set with BMMSC [9] was Active.
Consider `C=CC(c1ccc(OC)c(OC)c1)c1c(O)cc(O)c2c(=O)cc(-c3ccccc3)oc12` (configuration not stated), for which, in the data set on BMMSC [10], the result was Active.
On to `C=CC(c1ccc(OC)cc1)c1c(O)cc(O)c2c(=O)cc(-c3ccccc3)oc12` (configuration not stated), for which the result in the data set with BMMSC [11] and in the data set on BMMSC [10] was Active. Also, the Activity result with BMMSC [12] is “Dose-dependent effect”.
Take `C=CC(c1ccc(O)c(OC)c1)c1c(O)cc(O)c2c(=O)cc(-c3ccccc3)oc12` (configuration not stated): the Ki in data set [13] was 2530 nM; in data set [14] it was 2480 nM; in data set [15], 2410 nM. In addition, the outcome in the data set with BMMSC [11] and with BMMSC [10] was Active. Besides, in the data set on BMMSC [12], the Activity result was “Dose-dependent effect”. Besides, the IC50 with PC-3 is 30600 nM; in the data set on A549 it was 55500 nM. The viability at 72 h, 100 µM in data set [16] amounted to 57%.
For the compound `Cc1cc(SCc2sc(-c3ccc(C(F)(F)F)cc3)nc2C)ccc1OCC(=O)O`, the result with BMMSC [1], with BMMSC [2] and in the data set with BMMSC [4] was Active. Besides, the outcome with BMMSC [3] and in the data set with BMMSC [5] was inactive.

One may read the Ki as the dissociation constant of the complex between target and ligand, obtained from inhibition or displacement. What is called IC50 is the midpoint of a concentration-inhibition curve.
